According to patent US9533978B2 (AstraZeneca AB, priority 2009, dated 2017):

Target: T1, Recombinant human TLR7 (Homo sapiens, UniProt Q9NYK1)
T1 construct: expressed in transfected cells; host or cells: HEK293 cell line stably expressing the pNiFty2-SEAP reporter plasmid; TLR7 in vector pUNO, blasticidin selection
T1 sequence (Q9NYK1 27-1049): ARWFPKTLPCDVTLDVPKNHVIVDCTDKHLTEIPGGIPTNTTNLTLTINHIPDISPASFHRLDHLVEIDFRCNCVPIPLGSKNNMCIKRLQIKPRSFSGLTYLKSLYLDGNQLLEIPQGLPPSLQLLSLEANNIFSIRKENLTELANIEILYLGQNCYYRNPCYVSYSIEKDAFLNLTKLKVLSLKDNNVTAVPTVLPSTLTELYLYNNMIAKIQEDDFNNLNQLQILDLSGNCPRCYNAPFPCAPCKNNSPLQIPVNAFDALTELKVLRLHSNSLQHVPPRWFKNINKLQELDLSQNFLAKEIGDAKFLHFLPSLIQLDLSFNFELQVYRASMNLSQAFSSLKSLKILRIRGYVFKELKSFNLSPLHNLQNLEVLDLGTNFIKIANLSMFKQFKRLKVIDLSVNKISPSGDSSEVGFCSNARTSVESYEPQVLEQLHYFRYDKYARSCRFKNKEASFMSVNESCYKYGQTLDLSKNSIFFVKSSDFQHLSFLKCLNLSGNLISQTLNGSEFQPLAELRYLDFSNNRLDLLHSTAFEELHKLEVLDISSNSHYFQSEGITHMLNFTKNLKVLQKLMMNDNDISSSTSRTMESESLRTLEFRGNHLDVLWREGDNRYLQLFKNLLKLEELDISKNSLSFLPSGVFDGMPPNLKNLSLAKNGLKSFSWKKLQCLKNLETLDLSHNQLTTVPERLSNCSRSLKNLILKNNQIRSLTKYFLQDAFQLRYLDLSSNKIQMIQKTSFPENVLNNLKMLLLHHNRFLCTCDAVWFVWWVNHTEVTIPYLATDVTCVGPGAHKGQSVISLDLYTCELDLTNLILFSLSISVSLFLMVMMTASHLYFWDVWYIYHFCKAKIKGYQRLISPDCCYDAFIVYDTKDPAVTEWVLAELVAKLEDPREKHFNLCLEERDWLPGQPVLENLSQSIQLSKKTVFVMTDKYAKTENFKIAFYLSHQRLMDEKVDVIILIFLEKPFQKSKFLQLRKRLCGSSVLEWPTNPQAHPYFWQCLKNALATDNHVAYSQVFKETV
Experiment: Human TLR7 assay (HEK293 SEAP reporter)
Assay type: cell-based
Settings: degree of TLR7 activation; SEAP induction in HEK293 cells stably expressing recombinant human TLR7 and pNiFty2-SEAP reporter, overnight incubation at 37° C., 0.1% (v/v) DMSO
Protocol: The ability of compounds to activate TLR7 in vitro was assessed using the human TLR7 assay described below.
Recombinant human TLR7 was stably expressed in a HEK293 cell line already stably expressing the pNiFty2-SEAP reporter plasmid; integration of the reporter gene was maintained by selection with the antibiotic zeocin. The most common variant sequence of human TLR7 (represented by the EMBL sequence AF240467) was cloned into the mammalian cell expression vector pUNO and transfected into this reporter cell-line. Transfectants with stable expression were selected using the antibiotic blasticidin. In this reporter cell-line, expression of secreted alkaline phosphatase (SEAP) is controlled by an NFkB/ELAM-1 composite promoter comprising five NFkB sites combined with the proximal ELAM-1 promoter. TLR signaling leads to the translocation of NFkB and activation of the promoter results in expression of the SEAP gene. TLR7-specific activation was assessed by determining the level of SEAP produced following overnight incubation of the cells at 37° C. with the standard compound in the presence of 0.1% (v/v) dimethylsulfoxide (DMSO). Concentration dependent induction of SEAP production by compounds was expressed as the concentration of compound which produced half of the maximal level of SEAP induction for that compound (EC50).

Compound | EC50 [nM] | pEC50
CCCCCNc1nc(N)nc(C)c1Cc1ccc(OCCCO)cc1OC [Example 36, 3-(4-((2-Amino-4-methyl-6-(pentylamino)pyrimidin-5-yl)methyl)-3-methoxyphenoxy)propan-1-ol] | 50.1 | –
5-(4-(2-(Dimethylamino)ethoxy)benzyl)-6-methyl-N-pentylpyrimidine-2,4-diamine [Example 3] | – | 7.2
CCCCCNc1nc(N)nc(C)c1Cc1ccccc1OC [Example 19, 5-(2-Methoxybenzyl)-6-methyl-N4-pentylpyrimidine-2,4-diamine] | 63.1 | –
CCCCCNc1nc(N)nc(C)c1Cc1ccc(OCCN(C)Cc2ccccc2)cc1 [Example 7, 5-(4-(2-(Benzyl(methyl)amino)ethoxy)benzyl)-6-methyl-N^4-pentyl-pyrimidine-2,4-diamine] | 631 | –
CCCC[C@@H](CCO)Nc1nc(N)nc(C)c1Cc1ccc(C(=O)OC)cc1OC [Example 14, (S)-Methyl 4-((2-amino-4-(1-hydroxyheptan-3-ylamino)-6-methyl-pyrimidin-5-yl)methyl)-3-methoxybenzoate] | 10 | –
CCCCCNc1nc(N)nc(C)c1Cc1ccccc1O [Example 20, 2-((2-Amino-4-methyl-6-(pentylamino)pyrimidin-5-yl)methyl)phenol] | 126 | –
